# In the supplement of paper PMC10307832:
# Tests used:
# Experiment in all cases: relative viability (nuclei count vs DMSO), 5 days (fraction); higher = more cells survive
# [1] = compound: CCOc1cc2ncc(C#N)c(Nc3ccc(OCc4ccccn4)c(Cl)c3)c2cc1NC(=O)/C=C/CN(C)C [Neratinib] + COc1cc2c(Oc3ccc(NC(=O)C4(C(=O)Nc5ccc(F)cc5)CC4)cc3F)ccnc2cc1OCCCN1CCOCC1 [Foretinib] (partner 0.25 µM)
# Procedure, shortened: (§1)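 Relative viability divides the nuclei count in treated wells by that in vehicle wells. Lung cancer cell lines were seeded in 1536-well plates, dosed by pin tool the next day, and fixed and stained after 5 days in one step with final 0.05% Triton X-100, 1% formaldehyde and 1 ug/ml Hoechst. Dosing was a single drug or a fixed anchor-drug dose plus five library-drug doses (not always all listed) in √10 steps, and values are medians of duplicate plates imaged at 4×.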
# [2] = compound: CCOc1cc2ncc(C#N)c(Nc3ccc(OCc4ccccn4)c(Cl)c3)c2cc1NC(=O)/C=C/CN(C)C [Neratinib] + O=C(CCCCCCC(=O)Nc1ccccc1)NO [Vorinostat] (partner 1 µM)
# Procedure, shortened: as §1
# [3] = compound: CCOc1cc2ncc(C#N)c(Nc3ccc(OCc4ccccn4)c(Cl)c3)c2cc1NC(=O)/C=C/CN(C)C [Neratinib] + NC(=O)Nc1cc(-c2cccc(F)c2)sc1C(=O)N[C@H]1CCCNC1 [AZD7762] (partner 0.2 µM)
# Procedure, shortened: as §1
# [4] = compound: CCOc1cc2ncc(C#N)c(Nc3ccc(OCc4ccccn4)c(Cl)c3)c2cc1NC(=O)/C=C/CN(C)C [Neratinib] + CS(=O)(=O)N1CCN(Cc2cc3nc(-c4cccc5[nH]ncc45)nc(N4CCOCC4)c3s2)CC1 [Pictilisib] (partner 1 µM)
# Procedure, shortened: as §1
Cell Line,relative viability ([1]; first compound 0.01 µM),relative viability ([1]; first compound 0.03162 µM),relative viability ([1]; first compound 0.1 µM),relative viability ([1]; first compound 0.3162 µM),relative viability ([1]; first compound 1 µM),relative viability ([2]; first compound 0.01 µM),relative viability ([2]; first compound 0.03162 µM),relative viability ([2]; first compound 0.1 µM),relative viability ([2]; first compound 0.3162 µM),relative viability ([2]; first compound 1 µM),relative viability ([3]; first compound 0.01 µM),relative viability ([3]; first compound 0.03162 µM),relative viability ([3]; first compound 0.1 µM),relative viability ([3]; first compound 0.3162 µM),relative viability ([3]; first compound 1 µM),relative viability ([4]; first compound 0.01 µM),relative viability ([4]; first compound 0.03162 µM),relative viability ([4]; first compound 0.1 µM),relative viability ([4]; first compound 0.3162 µM),relative viability ([4]; first compound 1 µM)
NCI-H460,1.12,1.15,0.862,1.04,0.87,0.779,0.984,0.429,0.716,0.518,0.654,0.718,0.639,0.54,0.265,0.325,0.384,0.294,0.323,0.32
NCI-H1793,0.723,–,0.408,0.338,0.32,0.765,0.849,0.473,0.487,0.355,0.629,0.503,0.346,0.239,0.13,0.31,0.361,0.319,0.339,0.275
NCI-H2347,0.686,0.909,–,0.586,0.711,0.64,0.715,0.55,0.634,0.407,0.727,0.733,0.533,0.756,0.457,0.603,0.547,0.503,0.582,0.524
HARA,0.973,0.91,–,0.496,0.375,0.584,0.656,–,0.577,0.355,0.563,0.293,0.263,–,0.261,0.494,0.294,0.362,0.262,0.336
NCI-H1792,–,–,–,–,–,–,–,–,–,–,–,0.943,0.625,0.533,0.283,0.311,0.274,0.254,0.278,0.126
NCI-H1703,0.447,0.318,0.356,0.327,0.218,–,–,–,–,–,0.148,0.135,0.164,0.111,0.118,0.23,0.224,0.244,0.201,0.212
CAL-12T,1.04,1.12,0.979,0.824,0.284,0.802,0.835,0.553,0.436,0.198,0.616,0.695,0.556,–,0.646,0.491,0.548,0.362,0.396,0.218
PC-3 [JPC-3],1.07,1.14,0.927,0.815,0.318,1.14,0.82,0.783,0.424,0.665,0.798,0.863,0.856,0.487,0.51,0.81,0.739,0.616,0.536,0.473
NCI-H2087,1.36,1.24,1.05,0.742,0.536,0.783,0.566,0.538,0.711,0.573,1.36,1.29,0.985,1.24,0.694,0.989,0.899,–,0.799,0.492
NCI-H1395,0.919,1.03,–,1.02,0.668,0.846,0.698,–,0.722,0.595,0.419,0.42,0.399,0.388,0.389,0.595,0.679,0.602,0.659,0.449
SW 900,0.937,0.917,–,0.865,0.709,0.414,0.738,0.473,0.451,0.506,0.696,0.753,0.526,0.54,0.409,–,–,–,–,–
NCI-H520,0.96,–,0.61,–,0.394,0.759,0.686,–,0.615,0.509,–,–,–,–,–,0.297,0.377,0.222,0.215,0.188
A549,0.969,0.927,–,0.832,0.54,–,–,–,–,–,–,–,–,–,–,0.608,0.409,0.526,0.323,0.119
IA-LM,1.36,1.36,1.11,0.927,0.628,0.983,1,–,0.924,0.715,–,–,–,–,–,0.33,0.318,0.193,0.197,0.126
EKVX,0.697,0.952,0.578,0.567,0.193,0.889,0.801,0.498,0.276,0.308,0.726,0.699,0.609,0.441,0.199,0.476,0.387,0.32,0.163,0.129
ChaGo-K-1,0.945,1.07,0.884,0.888,0.718,0.9,0.814,0.675,0.799,0.799,0.93,0.879,0.648,0.842,0.788,0.668,0.781,0.689,0.639,0.614
NCI-H1755,0.876,0.988,–,0.972,0.745,0.828,0.695,0.658,0.916,0.794,0.492,0.53,0.356,0.65,0.407,0.475,0.455,0.407,0.36,0.209
NCI-H23,–,0.686,–,0.942,0.463,0.699,0.7,0.641,0.493,0.491,0.253,0.329,0.25,0.217,0.191,0.553,0.428,0.437,0.483,0.372
NCI-H2126,1.37,1.36,1.13,1.09,0.536,0.776,0.79,0.706,0.574,0.379,1.07,0.999,0.873,1,0.741,–,0.495,0.431,0.414,0.365
